Patent publication US20230331827A1, “POTASSIUM CHANNEL INHIBITORS” (priority 2017, published 2023)

Test system: trypsin
Experiment: Phage TRF binding assay on immobilised biotinylated trypsin (monoclonal phage ELISA)
Conditions: presented on phage as direct N-terminus gene-III fusion
Procedure: Phage display technology facilitates isolation of binders to any given target from large combinatorial repertoires based on proteins and peptides that can be presented on the surface of filamentous phage^105. In order to isolate functional knottin-antibody fusions from the KnotBody libraries multiple rounds of phage display selections on trypsin (cognate antigen for the EETI-II donor) were carried out. Phage particles were prepared by rescuing KnotBody libraries using trypsin cleavable helper phage ^102,106Two rounds of phage display selections were performed on 10 µg/ml biotinylated trypsin immobilised on Streptavidin (for Round-1) or Neutravidin (for round-2) coated Maxisorp™ immunotubes (Thermo Scientific, Cat No. 444202). In both rounds of selection, phage libraries were pre-incubated with streptavidin coated paramagnetic beads (Thermo Fisher Scientific, Cat. No. 11205D). […] Polyclonal phage preparations from round-2 selection outputs were analysed for trypsin binding using a time resolved fluorescence (TRF) binding assay. In this assay, polyclonal phage binding to biotinylated trypsin immobilised on neutravidin (Thermo Fisher Scientific, Cat. No 31000) coated Maxisorp™ plates (Thermo Scientific, Cat. No. 437111) was detected using a mouse anti-M13 antibody (GE Healthcare, Cat. No. 27-9420-01) followed by europium conjugated anti-mouse antibody (Perkin Elmer, Cat. No. AD0124). […]

“Ecballium elaterium trypsin inhibitor-II [EETI-II, reference compound]” was tested, and the binding to trypsin was “no detectable binding to trypsin”.
